From US4155909A, “2-Alkyl nicotinoids and processes for their production” (priority 1977, dated 1979)
Where “and” joins values, the source holds several entries; their conditions need not be identical. Identical values can stand only once.

Columns and labels:
Aphids = assay: Aphid spray test on replicate ivy cuttings infested with Aphids; type: in vivo; conditions: for Avg. % Dead / % Dead / Insecticidal Effectiveness: aphids; for Avg. % Dead: average of 3 replicates; for Avg. % Dead / % Dead / No. of Aphids Alive / No. of Aphids Dead: 5 ml sprayed, 18 hours; for % Dead / No. of Aphids Alive / No. of Aphids Dead: per replicate (1, 2, 3); for Insecticidal Effectiveness: as compared to nicotine (100%); for No. of Aphids Alive / No. of Aphids Dead: 100 mg in 10 ml ethanol + 40 ml water with surfactant
Procedure: A 100 mg sample of the candidate compound was dissolved in 10 ml absolute ethanol. To the solution was added 40 ml tap water containing 0.5 ml of 1% surfactant. A 5 ml sample of each solution was sprayed on to replicate ivy cuttings infested with Aphids. The results, tabulated below in Table I were recorded 18 hours following the application of the sprays. […]
(§1) In the first column, the LD50 of the compounds in mice is a measure of their mammalian toxicity. The second column illustrates the effectiveness of the candidate compounds as insecticides as compared to nicotine, whereas the third column is the ratio of insecticidal effectiveness to mammalian toxicity.

[1] = Mammalian toxicity, LD50 in mice; type: in vivo, mouse; conditions: in vivo; mouse; measure of mammalian toxicity
Description: as §1

mouse = assay: Mammalian toxicity, LD50 in mice; type: in vivo; conditions: compared with nicotine
Description: as §1

female house flies = assay: Topical application to the notum of female house flies; type: in vivo; conditions: for insecticidal effectiveness in words: common houseflies, compared with nicotine; for Avg. % Dead / Percent Dead, Run 1 / Percent Dead, Run 2: house flies, 50 mg in 0.4 ml ethanol, 0.3 μl applied, 24 hours; for Avg. % Dead: average of Run 1 and Run 2
Procedure: A 50 mg sample of the candidate compound was dissolved on 0.4 ml absolute ethanol. A 0.3 μl sample of the solution was applied to the notum of female house flies which has been anesthetized with ether. Results were read twenty-four hours later.

mammals = conditions: Haglid et al., compared with nicotine; cited from earlier work

For Cc1ccc(C2CCCN2C)c(C)n1 (centres unmarked) [2,6-dimethylnicotine, 2,6-Dimethyl-3-(1-methyl-2-pyrrolidinyl)pyridine], which “Avg. % Dead” value (Aphids) is on record?
The value was 6%.

What about the “% Dead” value (Aphids; 1080 min) of the same molecule?
Its value is 0% and 13% and 4%.

And the “Insecticidal Effectiveness” value (Aphids)?
The value was 6%.

What about the “No. of Aphids Alive” value (Aphids) of the same molecule?
The value was 32 and 20 and 87.

And the “No. of Aphids Dead” value (Aphids)?
Its value is 0 and 3 and 66.

And the LD50 [1]?
The LD50 was 41 mg/kg.

Which results are given for Cc1ncccc1C1CCCCN1 (centres unmarked) [2-methylanabasine, 2-Methyl-3-(2-piperidinyl)pyridine]?
Avg. % Dead (Aphids): 52%; % Dead (Aphids; 1080 min): 62% and 50% and 43%; Insecticidal Effectiveness (Aphids): 52%; No. of Aphids Alive (Aphids): 24 and 27 and 87; No. of Aphids Dead (Aphids): 39 and 27 and 66; LD50 [1]: 15.7 mg/kg

Which “Avg. % Dead” value (Aphids) does the source give for Cc1ncccc1C1CCCN1C (centres unmarked) [2-methylnicotine, 2-Methyl-3-(1-methyl-2-pyrrolidinyl)pyridine] here?
Its value is 6%.

What about the “% Dead” value (Aphids; 1080 min) of the same molecule?
Its value is 4% and 5% and 8%.

What about the “No. of Aphids Alive” value (Aphids) of the same molecule?
The value was 54 and 38 and 55.

What about the “No. of Aphids Dead” value (Aphids) of the same molecule?
Its value is 2 and 5.

What about the “mammalian toxicity in words” value (mouse) of the same molecule?
Its value is “lower mammalian toxicity than nicotine”.

And the “insecticidal effectiveness in words” value (female house flies)?
Its value is “as effective an insecticide as nicotine itself”.

What about the “Avg. % Dead” value (female house flies) of the same molecule?
Its value is 100%.

What about the “Percent Dead, Run 1” value (female house flies) of the same molecule?
Its value is 100%.

What about the “Percent Dead, Run 2” value (female house flies) of the same molecule?
The value was 100%.

For Cc1ncccc1C1CCCN1 (centres unmarked) [2-methylnornicotine, 2-Methyl-3-(2-pyrrolidinyl)pyridine], which “Avg. % Dead” value (Aphids) is on record?
Its value is 3%.

And the “% Dead” value (Aphids; 1080 min)?
Its value is 2% and 7% and 0%.

And the “Insecticidal Effectiveness” value (Aphids)?
Its value is 3%.

And the “No. of Aphids Alive” value (Aphids)?
The value was 39 and 27 and 30.

And the “No. of Aphids Dead” value (Aphids)?
The value was 2 and 0.

What about the LD50 [1] of the same molecule?
Its LD50 is 100 mg/kg.

And the “insecticidal effectiveness in words” value (female house flies)?
Its value is “only slightly less effective”.

And the “Avg. % Dead” value (female house flies)?
The value was 70%.

And the “Percent Dead, Run 1” value (female house flies)?
The value was 80%.

And the “Percent Dead, Run 2” value (female house flies)?
The value was 60%.

With Cc1ccncc1C1CCCN1C (centres unmarked) [4-methylnicotine] as the molecule, how does the “nicotinic / pharmacological activity in words” value (mammals) read?
Its value is “little or no nicotinic activity”.

With Cc1ccc(C2CCCN2C)cn1 (centres unmarked) [6-methylnicotine] as the molecule, how does the “nicotinic / pharmacological activity in words” value (mammals) read?
The value was “identical in pharmacological activity to nicotine itself”.

For CN1CCC[C@H]1c1cccnc1 [l-nicotine, reference compound], which “Avg. % Dead” value (Aphids) is on record?
Its value is 100%.

And the “% Dead” value (Aphids)?
Its value is 100%.

And the “No. of Aphids Alive” value (Aphids)?
Its value is 0.

And the “No. of Aphids Dead” value (Aphids)?
The value was 45 and 27 and 39.

And the LD50 [1]?
The LD50 was 0.26 mg/kg.

And the “Avg. % Dead” value (female house flies)?
The value was 100%.

And the “Percent Dead, Run 1” value (female house flies)?
Its value is 100%.

And the “Percent Dead, Run 2” value (female house flies)?
The value was 100%.
